This is an account of results in patent US20100160369A1, “S1P1 Agonists and Methods of Making And Using” (EXELIXIS, INC., priority 2008, published 2010).

What all share (type): cell-based
In experiment [1] the target is T1, S1P1 (Homo sapiens, UniProt P21453). Description: Tango β-arrestin Recruitment Assay in U2OS cells (Assay 2b). Also noted: linker with TEV protease (N1a) cleavage site (C). To be noted: Tango β-arrestin Recruitment Assay. The method in brief: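 U2OS cells expressing S1P1 and reporter, serum-starved 48 h, treated with compound (10-point 3-fold series, top 1 μM, 1% DMSO) overnight at 37 °C; β-lactamase substrate added 2 h at room temperature. F460/F530 ratio normalised to 1 μM S1P (100%) and DMSO; EC50 from concentration-response.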
Target sequence in this assay (P21453 whole entry): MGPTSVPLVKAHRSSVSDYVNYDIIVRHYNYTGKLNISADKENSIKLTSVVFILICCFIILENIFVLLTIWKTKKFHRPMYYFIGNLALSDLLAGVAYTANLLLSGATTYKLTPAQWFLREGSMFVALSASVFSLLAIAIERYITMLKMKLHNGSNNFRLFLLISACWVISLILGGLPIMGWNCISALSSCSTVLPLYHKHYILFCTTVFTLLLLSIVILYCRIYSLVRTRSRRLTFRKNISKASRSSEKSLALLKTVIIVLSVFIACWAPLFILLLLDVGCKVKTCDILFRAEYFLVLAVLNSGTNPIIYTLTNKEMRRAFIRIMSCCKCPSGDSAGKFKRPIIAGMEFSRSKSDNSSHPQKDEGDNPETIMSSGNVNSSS
Target sequence in this assay (P32121 whole entry partner): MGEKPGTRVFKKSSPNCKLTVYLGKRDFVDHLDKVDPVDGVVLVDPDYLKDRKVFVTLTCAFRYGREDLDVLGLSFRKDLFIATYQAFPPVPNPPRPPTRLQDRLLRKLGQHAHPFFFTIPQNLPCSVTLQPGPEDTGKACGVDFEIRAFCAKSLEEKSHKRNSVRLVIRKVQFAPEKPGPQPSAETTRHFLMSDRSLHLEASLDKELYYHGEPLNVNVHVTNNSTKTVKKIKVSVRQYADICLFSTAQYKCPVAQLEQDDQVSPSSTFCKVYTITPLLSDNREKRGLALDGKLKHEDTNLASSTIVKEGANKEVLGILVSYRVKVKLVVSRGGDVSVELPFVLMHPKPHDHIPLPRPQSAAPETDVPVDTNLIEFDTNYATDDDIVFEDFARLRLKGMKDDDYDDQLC

Experiment [2] deals with T1, S1P1. As to the kind of experiment: Tango β-arrestin Recruitment Assay in HEK293 cells (Assay 2a). Also noted: linker with TEV protease (N1a) cleavage site (C); host or cells: HEK293, transiently transfected. To be noted: Tango β-arrestin Recruitment Assay, read-out: Assay 2a EC50. The method in brief: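 HEK293 cells transiently expressing S1P1 (TEV-cleavable tTA fusion) with β-arrestin2–TEV; compounds up to 10 μM, 10-point 3-fold, 1% DMSO, 30 min then 16–18 h at 37 °C. Luciferase luminescence normalised to 5 μM S1P as 100% and DMSO as background; EC50 from percent-activity curves.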
Target sequence in this assay (P21453 whole entry): as the sequence (P21453 whole entry) above
Target sequence in this assay (P32121 whole entry partner): as the sequence (P32121 whole entry partner) above

The target in experiment [3] is T1, S1P1. Description: CNG cAMP Assay (Assay 1). On the set-up: host or cells: HEK293 cells expressing the CNG channel. To be noted: read-out: Assay 1 EC50. The method in brief:
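HEK293 cells expressing CNG channel and S1P1, membrane-potential dye loaded; compounds (top 10 μM, 10-point 3-fold, 1.8% DMSO) added with 25 μM Ro 20-1724, 500 nM NECA and 10 nM S1P for 90 min. T90/T0 fluorescence (Ex 350/Em 590 nm) normalised to NECA-alone vs DMSO; EC50 fitted.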
Target sequence in this assay (P21453 whole entry): as the sequence (P21453 whole entry) above

Setting [4] is: footnote 1: Relative EC50 was measured, read-out: Assay 2b relative EC50.

`OC(COc1cc(Cl)c(-c2noc(-c3cn4cc(C(F)(F)F)cc(Cl)c4n3)n2)cc1Cl)C(F)(F)F` (centres unmarked) [Entry 77]: the EC50 on S1P1 [1] (read-out: Assay 2b EC50) and at S1P1 [2] was at most 100 nM in each case.

As for `CC(=O)COc1cc(Cl)c(-c2noc(-c3cn4cc(C(F)(F)F)cc(Cl)c4n3)n2)cc1Cl` [Example 182], the EC50 at S1P1 [1] (read-out: Assay 2b EC50) and on S1P1 [2] was at most 100 nM in each case. As to `Oc1cc(Cl)c(-c2nnc(-c3cn4cc(C(F)(F)F)cc(Cl)c4n3)s2)cc1Cl` [Example 224, 2,5-dichloro-4-{5-[8-chloro-6-(trifluoromethyl)imidazo[1,2-a]pyridin-2-yl]-1,3,4-thiadiazol-2-yl}phenol], the EC50 is 100 to 500 nM on S1P1 [1] (read-out: Assay 2b EC50) and at most 100 nM on S1P1 [3]. For `CC(CO)Oc1cc(Cl)c(-c2nc(-c3cn4cc(C(F)(F)F)cc(Cl)c4n3)no2)cc1Cl` (centres unmarked) [Example 227, 2-[(2,5-dichloro-4-{3-[8-chloro-6-(trifluoromethyl)imidazo[1,2-a]pyridin-2-yl]-1,2,4-oxadiazol-5-yl}phenyl)oxy]propan-1-ol], the EC50 at S1P1 [1] (read-out: Assay 2b EC50) and at S1P1 [3] was at most 100 nM in each case. In the case of `OCC(O)COc1ccc(-c2nnc(-c3cn4cc(C(F)(F)F)cc(Cl)c4n3)s2)c(Cl)c1` (centres unmarked) [Example 245, 3-[(3-chloro-4-{5-[8-chloro-6-(trifluoromethyl)imidazo[1,2-a]pyridin-2-yl]-1,3,4-thiadiazol-2-yl}phenyl)oxy]propane-1,2-diol], the EC50 at S1P1 [1] (read-out: Assay 2b EC50) was 100 to 500 nM; at S1P1 [3], at most 100 nM.

Consider `CC(Oc1cc(Cl)c(-c2nnc(-c3cn4cc(C(F)(F)F)cc(Cl)c4n3)s2)cc1F)C(=O)O` (centres unmarked) [Example 250, 2-[(5-chloro-4-{5-[8-chloro-6-(trifluoromethyl)imidazo[1,2-a]pyridin-2-yl]-1,3,4-thiadiazol-2-yl}-2-fluorophenyl)oxy]propanoic acid], for which the EC50 is 100 to 500 nM on S1P1 [1] (read-out: Assay 2b EC50) and at most 100 nM on S1P1 [3]. The matching figures for `CC(CO)Oc1cc(Cl)c(-c2nnc(-c3cn4cc(C(F)(F)F)cc(Cl)c4n3)s2)cc1Cl` (centres unmarked) [Example 251, 2-[(2,5-dichloro-4-{5-[8-chloro-6-(trifluoromethyl)imidazo[1,2-a]pyridin-2-yl]-1,3,4-thiadiazol-2-yl}phenyl)oxy]propan-1-ol]: at most 100 nM and at most 100 nM.

Take `NC(CO)COc1cc(Cl)c(-c2noc(-c3cn4cc(C(F)(F)F)cc(Cl)c4n3)n2)cc1Cl` (centres unmarked) [Example 303, 2-amino-3-[(2,5-dichloro-4-{5-[8-chloro-6-(trifluoromethyl)imidazo[1,2-a]pyridin-2-yl]-1,2,4-oxadiazol-3-yl}phenyl)oxy]propan-1-ol]: the EC50 at S1P1 [1] (read-out: Assay 2b EC50) and on S1P1 [2] was at most 100 nM each time. As for `C[C@@H](O)COc1cc(Cl)c(-c2noc(-c3cn4cc(C(F)(F)F)cc(Br)c4n3)n2)cc1Cl` [Example 312, (2R)-1-[(4-{5-[8-bromo-6-(trifluoromethyl)imidazo[1,2-a]pyridin-2-yl]-1,2,4-oxadiazol-3-yl}-2,5-dichlorophenyl)oxy]propan-2-ol], the half-maximal effective concentration (EC50) on S1P1 [1] (read-out: Assay 2b EC50) and at S1P1 [2] was at most 100 nM throughout. Turning to `C[C@H](O)COc1cc(Cl)c(-c2noc(-c3cn4cc(C(F)(F)F)cc(Br)c4n3)n2)cc1Cl` [Example 313, (2S)-1-[(4-{5-[8-bromo-6-(trifluoromethyl)imidazo[1,2-a]pyridin-2-yl]-1,2,4-oxadiazol-3-yl}-2,5-dichlorophenyl)oxy]propan-2-ol], the EC50 on S1P1 [1] (read-out: Assay 2b EC50) and at S1P1 [2] was at most 100 nM each time. Consider `OC[C@@H](O)COc1cc(Cl)c(-c2noc(-c3cn4cc(C(F)(F)F)cc(Br)c4n3)n2)cc1Cl` [Example 317, (2R)-3-[(4-{5-[8-bromo-6-(trifluoromethyl)imidazo[1,2-a]pyridin-2-yl]-1,2,4-oxadiazol-3-yl}-2,5-dichlorophenyl)oxy]propane-1,2-diol], for which the EC50 on S1P1 [1] (read-out: Assay 2b EC50) and on S1P1 [2] was at most 100 nM throughout. For `NC(CO)COc1cc(Cl)c(-c2nnc(-c3cn4cc(C(F)(F)F)cc(Cl)c4n3)s2)cc1F` (centres unmarked) [Example 321, 2-amino-3-[(5-chloro-4-{5-[8-chloro-6-(trifluoromethyl)imidazo[1,2-a]pyridin-2-yl]-1,3,4-thiadiazol-2-yl}-2-fluorophenyl)oxy]propan-1-ol], the EC50 on S1P1 [1] (read-out: Assay 2b EC50) and on S1P1 [2] was at most 100 nM throughout.

On to `O=P(O)(O)OC[C@H](O)COc1cc(Cl)c(-c2noc(-c3cn4cc(C(F)(F)F)cc(Cl)c4n3)n2)cc1Cl` [Example 322, (2R)-3-[(2,5-dichloro-4-{5-[8-chloro-6-(trifluoromethyl)imidazo[1,2-a]pyridin-2-yl]-1,2,4-oxadiazol-3-yl}phenyl)oxy]-2-hydroxypropyl dihydrogen phosphate], for which the EC50 on S1P1 [1] (read-out: Assay 2b EC50) and on S1P1 [2] was at most 100 nM throughout. Consider `C[C@H](COc1cc(Cl)c(-c2noc(-c3cn4cc(C(F)(F)F)cc(Br)c4n3)n2)cc1Cl)OP(=O)(O)O` [Example 324, (1R)-2-[(4-{5-[8-bromo-6-(trifluoromethyl)imidazo[1,2-a]pyridin-2-yl]-1,2,4-oxadiazol-3-yl}-2,5-dichlorophenyl)oxy]-1-methylethyl dihydrogen phosphate], for which the EC50 on S1P1 [1] (read-out: Assay 2b EC50) and on S1P1 [2] was at most 100 nM in each case. As to `Nc1cc(Cl)c(-c2noc(-c3cn4cc(C(F)(F)F)cc(Cl)c4n3)n2)cc1Cl` [Example 337, 2,5-dichloro-4-{5-[8-chloro-6-(trifluoromethyl)imidazo[1,2-a]pyridin-2-yl]-1,2,4-oxadiazol-3-yl}aniline], the EC50 at S1P1 [1] (read-out: Assay 2b EC50) lay in the range of 100 to 500 nM.

Take `Oc1cc(Cl)c(-c2nnc(-c3cn4cc(C(F)(F)F)cc(Cl)c4n3)s2)cc1F` [Example 338, 5-chloro-4-{5-[8-chloro-6-(trifluoromethyl)imidazo[1,2-a]pyridin-2-yl]-1,3,4-thiadiazol-2-yl}-2-fluorophenol]: on S1P1 [1] (read-out: Assay 2b EC50), the EC50 lay in the range of 100 to 500 nM. The same measure, in the same setting: next, `NC(CO)COc1cc(Cl)c(-c2nnc(-c3cn4cc(Br)ccc4n3)s2)cc1F` (centres unmarked) [Example 339, 2-amino-3-({4-[5-(6-bromoimidazo[1,2-a]pyridin-2-yl)-1,3,4-thiadiazol-2-yl]-5-chloro-2-fluorophenyl}oxy)propan-1-ol]: at most 100 nM.

For the compound `CC(N)COc1cc(Cl)c(-c2nnc(-c3cn4cc(C(F)(F)F)ccc4n3)s2)cc1Cl` (centres unmarked) [Example 340, 1-[(2,5-dichloro-4-{5-[6-(trifluoromethyl)imidazo[1,2-a]pyridin-2-yl]-1,3,4-thiadiazol-2-yl}phenyl)oxy]propan-2-amine], the concentration giving a half-maximal response (EC50) on S1P1 [1] (setting [4]) is 5000 to 10000 nM. On the same count and under the same terms, next, `COc1cc(Cl)c(-c2noc(-c3cn4cc(C(F)(F)F)cc(Cl)c4n3)n2)cc1Cl` [Example 341]: 500 to 1000 nM. Consider `N[C@H](CO)COc1cc(Cl)c(-c2nnc(-c3cn4cc(C(F)(F)F)cc(Cl)c4n3)s2)cc1Cl` [Example 420, (2R)-2-amino-3-[(2,5-dichloro-4-{5-[8-chloro-6-(trifluoromethyl)imidazo[1,2-a]pyridin-2-yl]-1,3,4-thiadiazol-2-yl}phenyl)oxy]propan-1-ol], for which the EC50 at S1P1 [1] (read-out: Assay 2b EC50) is 100 to 500 nM.

For the compound `NC(CO)COc1cc(Cl)c(-c2nnc(-c3cn4ccc(C(F)(F)F)cc4n3)s2)cc1F` (centres unmarked) [Example 421, 2-amino-3-[(5-chloro-2-fluoro-4-{5-[7-(trifluoromethyl)imidazo[1,2-a]pyridin-2-yl]-1,3,4-thiadiazol-2-yl}phenyl)oxy]propan-1-ol], the EC50 at S1P1 [1] (read-out: Assay 2b EC50) lay in the range of 100 to 500 nM.
